pEC50, pIC50: −log10 of the molar value. Where two headings read alike, the source gives them in different places. Peptide text beside a SMILES is read from it. * marks the point of attachment. Cbz = O=C(OCc1ccccc1)*
Experiments:
Cathepsin-L [1] = system: Cathepsin-L; design: method as in https://www.apexbt.com/e-64.html; conditions: ref https://www.apexbt.com/e-64.html; read-out: IC50, Cathepsin-L inhibition, literature value; cited from earlier work
Cathepsin-L [2] = target: T1, Cathepsin-L (Homo sapiens, UniProt P07711); assay: Cathepsin-L Inhibitor Screening Kit (Fluorometric); format: biochemical; conditions: for pIC50: Cathepsin-L 0.01 ng/μL, substrate 5 μM, 30 min incubation at RT; for HillSlope, Cathepsin-L inhibition / LogIC50, Cathepsin-L inhibition / IC50: fit values given in Figure 6
T1 construct: purchased BPS Bioscience 79591
Method: The effect of MG-132 on Cathepsin-L activity was measured using the Cathepsin-L Inhibitor Screening Kit (Fluorometric) (BPS Bioscience #79591, San Diego, CA, USA). The assay is based on the Cathepsin-L mediated cleavage of a synthetic fluorogenic substrate. Generated AFC is measured on a fluorescence microplate reader. The assay was performed according to the manufacturer protocol but adapted to 384-well format with a final volume of 10 μL. Briefly, compounds (stock in 100% v/v DMSO) are transferred in black 384-well microplates by acoustic dispensing (Echo, Labcyte, Beckman Coulter); 5 µL of diluted Cathepsin-L is added and incubated for 30 min at RT. The enzymatic reaction is initiated by the addition of 5 µL of the substrate. The fluorescence signal is detected in a kinetic mode for 15 min at 37 °C using Ex/Em = […] (Envision, PerkinElmer). Final assay concentrations were: Cathepsin-L 0.01 ng/μL, substrate 5 μM. E-64 provided in the kit was used as a positive control for Cathepsin-L inhibition and assay validation. DMSO was used as compound solvent control (0% inhibition).

[3] = system: rat liver isolated Cathepsin-L; design: method as in PMID 18830882; conditions: cited from earlier work
SARS-CoV-2 in Calu-3 = system: SARS-CoV-2 in Calu-3; design: method as in PMID 33811811; conditions: Calu-3 cells; cited from earlier work
[4] = system: T2, SARS-CoV-2 protease PLpro; assay: Activity towards PLpro; format: biochemical; conditions: paper in preparation
T2 construct: the papain-like protease (PLpro; nsp3)
From the text: Knowing the role of MG-132 in inhibition of the proteasome and representatives of Cathepsin and Calpain proteases, we investigated its role in the inhibition of Cathepsin-L, one of the key enzymes needed for the entry of SARS-CoV-2. Previously, we reported the anti-cytopathic activity of MG-132 in SARS-CoV-2 infected Vero-E cells [see CHEMBL Entry https://www.ebi.ac.uk/chembl/document_report_card/CHEMBL4495565/, accessed on 28 October 2021]. The results were confirmed by different groups reporting antiviral activity also in other cell lines like Huh-7 and Calu-3 all with sub-micromolar EC50 [39]. If we compare the antiviral activity in cells to the high IC50 measured against Mpro it is reasonable to assume that the effect on Mpro is probably too low to justify submicromolar cell activity, and thus it is supported by inhibition of host proteases. We have measured no activity towards the second SARS-CoV-2 protease PLpro (paper in preparation).

SARS-CoV-2 in Huh-7 = system: SARS-CoV-2 in Huh-7; design: method as in PMID 33811811; conditions: Huh-7 cells; cited from earlier work
Mpro = assay: Thermostability assay (TSA); format: binding, SARS-CoV-2; conditions: 1 μM protein, normalized with DMSO
Method: A reaction mixture containing the protein at 1 μM final concentration and increasing molar excesses of MG-132 (1×, 3×, 10×, 20×, and 50×) was tested. In each well: 20 μL of buffer 5×, 2 μL of protein stock, the volume of MG-132 stock needed for the fixed molar excess, and Milli-Q H2O to reach 99 μL was added. The protein was left in incubation with the compound for 30 min at room temperature. The plate was put on ice, and 1 μL of 500 × SYPRO orange (Thermo Fischer Scientific) was added in each well. The plate was sealed and centrifuged at 200× g and 4 °C for 1 min. The melting curves were measured in a RT-PCR (Eppendorf, Milan, Italy). After a stationary phase of 2 min at 25 °C, the temperature was increased by 0.5 °C every 30 s until the maximum of 95 °C was reached. Fluorescence has been measured at each step. Each condition has been reproduced in tripled. The Tm control with the protein and the equivalent volume of DMSO only was assessed as well.

[5] = system: SARS-CoV-2 main protease (Mpro); design: method as in PMID 35287429; conditions: read-out: IC50 in the Mpro enzymatic assay, cited from earlier work
[6] = system: SARS-CoV-2 strain BetaCov/Belgium/GHB-03021/2020; design: method as in PMID 35287429; conditions: Vero-E6 cells infected by SARS-CoV-2; read-out: EC50, reduction of viral RNA (qPCR); cited from earlier work

T1 sequence (P07711 114-333): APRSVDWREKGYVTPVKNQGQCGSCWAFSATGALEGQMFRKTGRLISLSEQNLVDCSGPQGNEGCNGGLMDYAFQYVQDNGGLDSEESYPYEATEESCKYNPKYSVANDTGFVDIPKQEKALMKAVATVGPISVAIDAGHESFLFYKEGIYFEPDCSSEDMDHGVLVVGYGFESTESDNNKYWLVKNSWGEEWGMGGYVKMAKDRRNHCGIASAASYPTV

In the case of `CC(C)C[C@H](NC(=O)[C@H]1O[C@@H]1C(=O)O)C(=O)NCCCCN=C(N)N` [E64], the pIC50 (Cathepsin-L [1]) is listed as 8.60, the pIC50 (Cathepsin-L [2]; read-out: IC50, Cathepsin-L inhibition) is listed as 8.57 and the “HillSlope, Cathepsin-L inhibition” value (Cathepsin-L [2]) is listed as -2.040. The “LogIC50, Cathepsin-L inhibition” value (Cathepsin-L [2]) was -8.560 and the IC50 (Cathepsin-L [2]; read-out: IC50 (M), Cathepsin-L inhibition) was 2.75e-09 M.

In the case of `CC(C)C[C@@H](C=O)NC(=O)[C@H](CC(C)C)NC(=O)[C@H](CC(C)C)NC(=O)OCc1ccccc1` [MG-132] (Cbz-Leu-Leu-Leu-aldehyde), the pEC50 [3] is listed as 6.79, the “EC50, antiviral activity” value (SARS-CoV-2 in Calu-3) is listed as “sub-micromolar” and the “activity towards PLpro” value [4] is listed as “no activity”. The “EC50, antiviral activity” value (SARS-CoV-2 in Huh-7) was “sub-micromolar”, the ΔTm (Mpro; 50 molar excess of inhibitor) was 3.5 °C and the ΔTm (Mpro; one molar excess of inhibitor) was 0.5 °C. For the same molecule, the pIC50 [5] was 5.13, the pIC50 ([5]; with 1 mM DTT) was 5.33 and the pEC50 [6] was 7.00. For the same molecule, the IC50 (Cathepsin-L [2]; IC50 (M), Cathepsin-L inhibition) was 1.55e-10 M, the pIC50 (Cathepsin-L [2]; IC50, Cathepsin-L inhibition) was 9.82 and the “HillSlope, Cathepsin-L inhibition” value (Cathepsin-L [2]) was -1.826. The “LogIC50, Cathepsin-L inhibition” value (Cathepsin-L [2]) was -9.811.
